This is an account of results in patent US4843075A, “Benzothiopyrano[4,3-c]pyridazine compounds, methods for preparing said compounds and uses of said compounds” (Yoshitomi Pharmaceutical Industries, Ltd., priority 1986, dated 1989).

The structures appear in SMILES notation.

The ED50 is the midpoint of the dose-response relation. High values mean weaker potency, low ones greater potency. The Ki is a measure of affinity in units of concentration, obtained from inhibition or displacement.

Test [1] in a line: Anti-bicuculline effect (tonic convulsion in mice). It counts as in vivo, male ddY-strain mice. Particulars: Mus musculus, oral, (+)bicuculline 0.6 mg/kg i.v. 1 hour after test compound, tonic convulsion within 5 minutes. As for the experimental part:
The experiment of anti-bicuculline effect was performed according to the method described in Life Science, vol. 21, p. 1779 (1977).
In brief, groups of 7-14 male ddY-strain mice weighing 20-28 g were used. (+)Bicuculline (0.6 mg/kg) was intraveneously administered 1 hour after the oral adminstration of test compound, and the ED50, 50% effective dose, was determined by observing the existence of tonic convulsion within 5 minutes.

The next test has as its target benzodiazepine receptor. Kind of test: Displacement ability for benzodiazepine receptor (displacement of tritiated diazepam). Particulars: displacement of tritiated diazepam (2 nM), rat cerebral cortex synaptosomal fraction, pH 7.4, 0° C., 20 minutes; read-out: binding for benzodiazepine Ki. As for the experimental part:
The experiment was performed according to the methods described in European Journal of Pharmacology, vol. 51, P. 129 (1978) and Life Science, vol. 20, p. 1201 (1977).
In brief, a crude synaptosomal fraction was isolated from the cerebral cortex of 9 to 10 week-old male Wistar rats and suspended in 50 mM of Tris-hydrochloric acid buffer solution (pH 7.4) containing 120 mM of sodium chloride and 5 mM of potassium chloride.
To the synaptosomal suspension as prepared above were added various concentrations of test compounds and tritiated diazepam (final concentration:2 nM), and the mixture was incubated at 0° C. for 20 minutes. Then the suspension was filtered through Whatman GF/B glass fiber filter. After the filter was washed with the foregoing buffer solution, the radioactivity left on the filter was measured by a liquid scintillation spectrometry.
Specific binding was determined by subtracting binding in the presence of 10^-6 M unlabelled diazepam from total binding.
According to the above experimental method, the affinity of the compounds of the present invention for benzodiazepine receptor is evaluated as an ability to displace tritiated diazepam from the binding site, and is represented as Ki value.

With `O=C1CC2CSc3ccccc3C2=NN1c1ccc(Cl)cc1` (centres unmarked) [Example 1, 2-(4-chlorophenyl)-2,3,4,4a-tetrahydro-5H-(1)benzothiopyrano[4,3-c]pyridazin-3-one], in test [1], the ED50 turned out to be 12.4 mg/kg. Also, the Ki on benzodiazepine receptor came out at 40 nM. On to `O=C1CC2C[S+]([O-])c3ccccc3C2=NN1c1ccc(Cl)cc1` (centres unmarked) [Example 3, 2-(4-chlorophenyl)-2,3,4,4a-tetrahydro-5H-(1)benzothiopyrano[4,3-c]pyridazin-3-one 6-oxide], for which, in test [1], the ED50 was 4.1 mg/kg. For `Cc1ccc(N2N=C3c4ccccc4SCC3CC2=O)cc1` (centres unmarked) [Example 9, 2-(4-methylphenyl)-2,3,4,4a-tetrahydro-5H-(1)benzothiopyrano[4,3-c]pyridazin-3-one], the Ki at benzodiazepine receptor is 12 nM. As to `COc1ccc(N2N=C3c4ccccc4SCC3CC2=O)cc1` (centres unmarked) [Example 10, 2-(4-methoxyphenyl)-2,3,4,4a-tetrahydro-5H-(1)benzothiopyrano[4,3-c]pyridazin-3-one], the Ki at benzodiazepine receptor came out at 13 nM. Turning to `O=C1CC2CSc3ccccc3C2=NN1c1ccc(Br)cc1` (centres unmarked) [Example 13, 2-(4-bromophenyl)-2,3,4,4a-tetrahydro-5H-(1)benzothiopyrano[4,3-c]pyridazin-3-one], at benzodiazepine receptor, the Ki turned out to be 45 nM. `O=C1CC2C[S+]([O-])c3ccc(F)cc3C2=NN1c1ccc(Cl)cc1` (centres unmarked) [Example 19, 2-(4-chlorophenyl)-9-fluoro-2,3,4,4a-tetrahydro-5H-(1)benzothiopyrano[4,3-c]pyridazin-3-one 6-oxide]: in test [1], it took a dose of 10.6 mg/kg to reach the 50% effect level (ED50). `Cc1ccc2c(c1)C1=NN(c3ccc(Cl)cc3)C(=O)CC1C[S+]2[O-]` (centres unmarked) [Example 23, 2-(4-chlorophenyl)-9-methyl-2,3,4,4a-tetrahydro-5H-(1)benzothiopyrano[4,3-c]pyridazin-3-one 6-oxide] registered an ED50 in test [1] of 40.6 mg/kg.
